Assay results taken from patent US20250161297A1, “COMPOSITIONS AND METHODS FOR INHIBITING FSP1” (THE REGENTS OF THE UNIVERSITY OF CALIFORNIA, priority 2022, published 2025).
Entries after “also recorded” stand apart in the source; their conditions may differ. Residues, ends and D or L forms follow the SMILES beside them. *: point of attachment. Cbz = O=C(OCc1ccccc1)*; CH2F = FC*

Key:
H460^C FSP1^KO cells = experiment: FDA and Bioactive Library synthetic lethal screen; assay type: cell-based; conditions: 24 h
Protocol: FDA and Bioactive Library Screen: For FDA and Bioactive Library Screen experiments, cells were seeded at a density of 750 cells per 25 uL per well in black 384-well plates (NUNC) and (Corning) 24 hr before start of imaging. After 24 hr, an additional 25 μL of drug infused medium containing 30 nM SYTOX Green Dead Cell Stain was carefully placed into the wells on top of existing medium. The plates were immediately transferred to an IncuCyte S3 imaging system (Essen Bioscience) enclosed in an incubator set to 37° C. and 5% CO2. One image per well were captured in the phase, green, and red channels every 4 hr over a 24 hr period, and the ratio of SYTOX Green-positive objects (dead cells) to SYTOX Green-positive plus SgSAFE mCherry-positive objects (total cells) was quantified using S3 image analysis software (Essen Bioscience). For each treatment condition, the SYTOX-to-‘SYTOX+mCherry’-object ratio was plotted against the 24 hr imaging interval, the Area Under the Curve (AUC) was calculated, and the average AUC was plotted as a function of drug concentration (for example, RSL3) using Prism (GraphPad). To calculate the half-maximal effective concentration (EC50) values, the AUC curve was fit to a variable slope function comparing response to drug concentration. […]

H460^C cells [1] = experiment: DHA- and FINO2-induced cell death with FSEN1 co-treatment; assay type: cell-based
Protocol: (§1) For cell-based screen, cells were seeded in triplicate at a density of 500-750 cells per 50 μL per well in black 384-well plates (NUNC) and (Corning) 24 hr before start of imaging. After 24 hr, an additional 50 μL of drug infused medium containing 30 nM SYTOX Green Dead Cell Stain was carefully placed into the wells on top of existing medium. The plates were immediately transferred to an IncuCyte S3 imaging system (Essen Bioscience) enclosed in an incubator set to 37° C. and 5% CO2. One image per well were captured in the phase, green, and red channels every 1.5 or 3 hr over a 24 hr period, and the ratio of SYTOX Green-positive objects (dead cells) to SYTOX Green-positive plus Sg-SAFE mCherry-positive objects (total cells) was quantified using S3 image analysis software (Essen Bioscience). For each treatment condition, the SYTOX-to-′SYTOX+mCherry′-object ratio was plotted against the 24 hr imaging interval, the Area Under the Curve (AUC) was calculated and the average AUC was plotted using Prism (GraphPad). To calculate the half-maximal effective concentration (EC50) values, the AUC curve was fit to a variable slope function comparing response to drug concentration.
(§2) Synergy experiments: For cell-based synergy experiments, cells were seeded at a density of 750 cells per 25 μL per well in four black 384-well plates (Corning) 24 hr before start of imaging. After 24 hr, an additional 25 μL of drug infused medium containing 30 nM SYTOX Green Dead Cell Stain was carefully placed into the wells on top of existing medium. The plates were immediately transferred to an IncuCyte S3 imaging system (Essen Bioscience) enclosed in an incubator set to 37° C. and 5% CO2. One image per well were captured in the phase, green, and red channels every 4 hr over a 24 hr period, and the ratio of SYTOX Green-positive objects (dead cells) to SYTOX Green-positive plus Sg-SAFE mCherry-positive objects (total cells) was quantified using S3 image analysis software (Essen Bioscience). For each treatment condition, the SYTOX-to-′SYTOX+mCherry′-object ratio was plotted against the 24 hr imaging interval, the Area Under the Curve (AUC) was calculated, and the average AUC was plotted as a function of drug concentration (for example, RSL3) using Prism (GraphPad). To calculate the half-maximal effective concentration (EC50) values, the AUC curve was fit to a variable slope function comparing response to drug concentration.

H460^C cells [2] = experiment: GPX4 inhibitor-induced cell death with FSEN1 co-treatment; assay type: cell-based
Protocol: as §1, §2

[3] = tested on: panel of cancer cell lines of various tissue origins; experiment: RSL3-induced cell death in a panel of cancer cell lines; assay type: cell-based; conditions: RSL3 plus FSEN1; 2 μM Fer-1
Protocol: as §1, with “concentration. […]” for “concentration.”

[4] = target: T1, His tagged FSP1 (WT) protein (Homo sapiens, UniProt Q9BRQ8); experiment: in vitro FSP1 activity assay (NADH oxidation during CoQ1 reduction, 355 nm absorbance); assay type: biochemical; conditions: inhibition of FSP1 Coenzyme Q1 oxidoreductase activity in vitro
T1 construct: made in house; host or cells: E. coli LOBSTR-BL21 (DE3)
T1 sequence (Q9BRQ8 1-373): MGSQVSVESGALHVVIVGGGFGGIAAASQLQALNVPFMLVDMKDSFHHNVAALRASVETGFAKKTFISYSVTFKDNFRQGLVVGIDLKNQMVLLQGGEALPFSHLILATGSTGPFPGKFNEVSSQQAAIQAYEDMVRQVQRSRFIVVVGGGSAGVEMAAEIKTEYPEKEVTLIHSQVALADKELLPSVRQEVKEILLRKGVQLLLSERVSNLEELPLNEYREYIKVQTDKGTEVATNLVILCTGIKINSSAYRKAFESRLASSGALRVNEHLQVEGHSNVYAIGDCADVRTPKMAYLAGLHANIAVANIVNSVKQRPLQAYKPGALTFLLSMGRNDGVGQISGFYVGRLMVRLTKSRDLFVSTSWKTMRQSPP
Protocol: For small molecule drug screen, 0.5 μL of compounds were stamped into 384 well NBS plates (Corning) in dose response diluted 2-fold with a high of 2 mM. 60 mL of purified His tagged FSP1 (WT) protein at 50 nM was prepared and 12.5 μL of this protein solution was aliquoted into 384 well NBS-plates (Corning) containing compound and allowed to incubate for 30 min at room temperature. After 30 min incubation 12.5 μL of reaction buffer (1 mM NADH, 800 µM CoQ1) was added into the 384 well NBS-plates containing protein and compounds for a final concentration of 25 nM His tagged FSP1 (WT) protein, 500 µM NADH (Sigma-Aldrich) and 400 µM CoQ1 (Sigma-Aldrich). Each well contained a 25 μL mixture and 40 µM compound in the primary screen. […] Measurements were taken at 355 nm with a EnVision 2104 multilabel plate reader (PerkinElmer). […] Compounds with confirmed data that have normalized absorbance values of less than 0.164 were chosen for dose response. […]
To measure NADH oxidation kinetics, 25 nM recombinant FSP1 was combined with 500 µM NADH and C400 µM Coenzyme Q1 in a total volume of 100 μl PBS. The change in absorbance at 355 nm, corresponding to NADH oxidation, was determined over the course of 4 h. All measurements were taken using a SpectraMax i3 Multi-Mode Platform plate reader (Molecular Devices). […]

H460^C GPX4^KO cells = experiment: cell-based assay of FSP1 activity, cell death (SYTOX Green/mCherry lethal fraction)
Protocol: as §1
In addition to the in vitro activity assay, an orthogonal cell-based assay of FSP1 activity was also developed. […]

H460^C Cas9 cells = experiment: cell-based assay, cell death in control cells
Protocol: as §1, with “concentration. […]” for “concentration.”
Employing this assay, the amount of cell death induced by 168 FSP1 inhibitors in the H460^C Cas9 and H460^C GPX4^KO cells was assessed. […]

| Compound | effect on cell death induced by co-treatment of FSEN1 with RSL3 (H460^C cells [2]) | effect on cell death induced by DHA and FSEN1 together (H460^C cells [1]) | other results |
| --- | --- | --- | --- |
| C[C@H]1[C@@H](O)O[C@@H]2O[C@@]3(C)CC[C@H]4[C@H](C)CC[C@@H]1[C@@]24OO3 [DHA, dihydroartemisinin] | – | – | cytotoxicity in H460^C FSP1^KO cells (H460^C FSP1^KO cells): selectively induced cell death; EC50 (H460^C cells [1]; DHA and FSEN1 treatment together): 21.3 µM |
| CN1C(=O)NC(Cc2c[nH]c3c(Cl)cccc23)C1=O (stereo not drawn) [Nects] | no effect | – | – |
| COC(=O)c1ccc([C@@H]2c3[nH]c4ccccc4c3C[C@@H](C(=O)OC)N2C(=O)CCl)cc1 [RSL3] | – | – | cytotoxicity in H460^C FSP1^KO cells (H460^C FSP1^KO cells): cytotoxic |
| COC(=O)C[C@H](NC(=O)[C@H](C)NC(=O)[C@@H](NC(=O)OCc1ccccc1)C(C)C)C(=O)CF [Z-VAD] (Cbz-Val-Ala-Asp(OMe)-CH2F) | no effect | – | – |
| CCOC(=O)c1ccc(NC2CCCCC2)c(N)c1 [ferrostatin-1] | blocked | strongly suppressed | effect on cell death by co-treatment [3]: rescued |
| Cc1ccc(-c2c(C#N)c(N)n3c(nc4ccccc43)c2C#N)cc1 [iFSP1] | – | – | IC50 [4]: 4.01 µM; cell death in H460^C GPX4^KO cells (H460^C GPX4^KO cells): sufficient to trigger ferroptosis; also recorded: selectively triggered cell death; cell death in H460^C Cas9 cells (H460^C Cas9 cells): but not in the H460^C Cas9 cells |
| COC1=C(OC)C(=O)C(CCCCCCCCCCO)=C(C)C1=O [idebenone] | blocked | strongly suppressed | – |
| tocopherol | blocked | strongly suppressed | – |
